Laboratory results reported in publication PMC7187334 (Clinical Pharmacology in Drug Development, 2019).
“Also recorded” adds a separate entry of the source. Marks after values point to notes of the source that are not given here.

Experiments:
CYP2C19 = settings: in vitro; read-out: IC50, CYP2C19 inhibition; cited from earlier work
[1] = system: leukotriene B4 production in human leukocytes; settings: in vitro; cited from earlier work
[2] = Phase 1 crossover study: AZD5718 plasma pharmacokinetics; format: in vivo, human; settings: for AUC(0-inf) / AUC(0-t) / half-life / Tmax / Cmax: human, plasma, oral; for AUC(0-inf): AZD5718 AUC0-inf; for AUC(0-t): AZD5718 AUC0-last; for half-life: AZD5718 t1/2 lambda z; for Tmax: AZD5718 tmax, median (range); for Cmax: AZD5718 Cmax
Description: The primary objective was to evaluate the pharmacokinetics of oral rosuvastatin when administered alone and in combination with oral AZD5718. […] Each participant received 5 single-dose oral study treatments (A-E), with a minimum washout period of 7 days between each treatment period. Participants were randomly assigned to treatments in the order A, B, C, D, E or B, A, C, D, E. Treatments were: […] […] Participants fasted for at least 10 hours before treatment and for at least 4 hours after treatment. Participants receiving treatment E consumed a high-fat breakfast 30 minutes before treatment. Water was permitted as desired except within 1 hour of administration. […] Doses were taken with 240 mL of water. […] At a minimum, each analytical run included a calibration curve, a matrix blank, a control zero sample (matrix blank containing internal standard), a reagent blank, and duplicate quality control samples at 3 concentrations within the calibration range. […] Both assessments were well within the acceptance criteria. […] The pharmacokinetic analysis set for rosuvastatin included all participants who received both rosuvastatin treatments. […] Statistical analyses were performed by […] using SAS version 9.4. Rosuvastatin pharmacokinetics were analyzed using a mixed-effects model, with log-transformed AUC, AUC0-last, and Cmax as the response variables; treatment sequence, period, and treatment as fixed effects; and participant nested within treatment sequence as a random effect. […] LS mean differences and 90%CIs for the effect of formulation or food for log-transformed variables were back transformed to geometric mean ratios and presented as percentages with 90% CIs.

CYP2C8 = settings: in vitro; read-out: IC50, CYP2C8 inhibition; cited from earlier work
[3] = healthy volunteers, cited from earlier work
[4] = 200 mg suspension, fasted, n = 10
[5] = 200 mg tablet plus rosuvastatin 10 mg, fasted, n = 12
[6] = 200 mg, arithmetic mean (SD), 200 mg suspension, fasted, n = 10
[7] = 200 mg, arithmetic mean (SD), 200 mg tablet, fasted, n = 10
[8] = 200 mg, arithmetic mean (SD), 200 mg tablet, fed, n = 12
[9] = 200 mg, geometric mean (%CV), 200 mg suspension, fasted, n = 10
[10] = 200 mg, geometric mean (%CV), 200 mg tablet, fasted, n = 10
[11] = 200 mg, geometric mean (%CV), 200 mg tablet, fed, n = 12
[12] = arithmetic mean (SD), 200 mg tablet plus rosuvastatin 10 mg, fasted, n = 12
[13] = geometric mean (%CV), 200 mg tablet plus rosuvastatin 10 mg, fasted, n = 12
[14] = male, 200 mg, geometric mean (%CV), 200 mg suspension, fasted, n = 12
[15] = male, 200 mg, geometric mean (%CV), 200 mg tablet, fasted, n = 12
[16] = male, 200 mg, geometric mean (%CV), 200 mg tablet, fed, n = 12
[17] = male, geometric mean (%CV), 200 mg tablet plus rosuvastatin 10 mg, fasted, n = 12
[18] = tablets after high-fat breakfast relative to fasting

Cc1cc(-c2ccc(C(=O)[C@@H]3CCCC[C@H]3C(=O)Nc3cnn4c3C(=O)NCC4)cc2)n[nH]1 [AZD5718]
IC50 (CYP2C19): > 20 µM | IC50 [1]: 0.039 µM | AZD5718 CL/F, arithmetic mean (SD) [2, 4]: 93.55 (20.40) ^a L/h | AZD5718 CL/F, geometric mean (%CV) [2, 4]: 91.5 (22.2) ^a L/h | AZD5718 CL/F, arithmetic mean (SD) [2, 5]: 127.6 (28.12) L/h | AZD5718 CL/F, geometric mean (%CV) [2, 5]: 124.6 (22.6) L/h | AZD5718 Cmax, ratio of geometric LS means ([2]; 200 mg tablet vs oral suspension, fasted, 90% CI 36%-57%): 45% | AZD5718 AUC0-inf (relative bioavailability), geometric LS mean ratio ([2]; 200 mg tablet vs oral suspension, fasted, 90% CI 64%-80%): 72% | AZD5718 CL/F, arithmetic mean (SD) ([2]; 200 mg tablet, fasted, n = 10): 128.1 (25.63) ^a L/h | AZD5718 CL/F, geometric mean (%CV) ([2]; 200 mg tablet, fasted, n = 10): 126.0 (20.1) ^a L/h | AZD5718 AUC0-inf (relative bioavailability), geometric LS mean ratio ([2]; 200 mg tablet, fed (high-fat breakfast) vs fasted, 90% CI 87%-106%): 96% | AZD5718 Cmax, geometric LS mean ratio ([2]; 200 mg tablet, fed vs fasted, 90% CI 63%-95%): 77% | AZD5718 CL/F, arithmetic mean (SD) ([2]; 200 mg tablet, fed, n = 12): 136.9 (25.53) L/h | AZD5718 CL/F, geometric mean (%CV) ([2]; 200 mg tablet, fed, n = 12): 134.4 (20.4) L/h | Effect of rosuvastatin coadministration on AZD5718 pharmacokinetics ([2]; AZD5718 200 mg tablet plus rosuvastatin 10 mg vs tablet alone): unaffected; also recorded: not affected | Between-participant variability (CV) of AUC0-inf and AUC0-last ([2]; AZD5718 tablets): < 25% | AUC(0-inf) [2, 6]: 5 µM·h | AUC(0-inf) [2, 7]: 3.62 µM·h | AUC(0-inf) [2, 8]: 3.4 µM·h | AUC(0-inf) [2, 9]: 4.89 µM·h | AUC(0-inf) [2, 10]: 3.56 µM·h | AUC(0-inf) [2, 11]: 3.33 µM·h | AUC(0-t) ([2]; 200 mg, arithmetic mean (SD), 200 mg suspension, fasted, n = 12): 4.75 µM·h | AUC(0-t) ([2]; 200 mg, arithmetic mean (SD), 200 mg tablet, fasted, n = 12): 3.49 µM·h | AUC(0-t) [2, 8]: 3.27 µM·h | half-life [2, 6]: 13.6 h | half-life [2, 7]: 14 h | half-life [2, 8]: 13.7 h | half-life [2, 9]: 13.2 h | half-life [2, 10]: 13.2 h | half-life [2, 11]: 13.5 h | Tmax ([2]; 200 mg, 200 mg suspension, fasted, n = 12): 1 h | Tmax ([2]; 200 mg, 200 mg tablet, fed, n = 12): 4 h | AUC(0-inf) [2, 12]: 3.67 µM·h | AUC(0-inf) [2, 13]: 3.59 µM·h | AUC(0-t) [2, 12]: 3.55 µM·h | half-life [2, 12]: 15 h | half-life [2, 13]: 13.9 h | Tmax [2, 5]: 2.01 h | Decrease in AZD5718 Cmax ([2]; immediate-release tablets relative to oral suspension): about 55% | AUC(0-t) [2, 14]: 4.65 µM·h | AUC(0-t) [2, 15]: 3.43 µM·h | AUC(0-t) [2, 16]: 3.21 µM·h | Cmax ([2]; male, 200 mg, arithmetic mean (SD), 200 mg suspension, fasted, n = 12): 1250 nM | Cmax ([2]; male, 200 mg, arithmetic mean (SD), 200 mg tablet, fasted, n = 12): 565 nM | Cmax ([2]; male, 200 mg, arithmetic mean (SD), 200 mg tablet, fed, n = 12): 427 nM | Cmax [2, 14]: 1170 nM | Cmax [2, 15]: 530 nM | Cmax [2, 16]: 409 nM | AUC(0-t) [2, 17]: 3.46 µM·h | Cmax ([2]; male, arithmetic mean (SD), 200 mg tablet plus rosuvastatin 10 mg, fasted, n = 12): 567 nM | Cmax [2, 17]: 545 nM | Decrease in AZD5718 Cmax [2, 18]: about 23% | Delay in AZD5718 tmax [2, 18]: about 1 hour | IC50 (CYP2C8): > 20 µM | time to steady-state levels ([3]; oral suspension, multiple doses): about 3 days | tolerability ([3]; single oral doses 25-1200 mg and multiple doses 60-600 mg): well tolerated, with no identified safety concerns
